These results are taken from PubChem BioAssay (NCI).

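Exposure lasted 48 hours, with cells grown in 96-well plates and compounds tested at five concentrations. The concentration for full growth arrest is given as TGI.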

The first assay has as its system 786-0 renal. The assay can be described thus: growth of human tumour cells (NCI), 48 h.
`O=[N+]([O-])c1cc(Cl)ccc1Sc1ccccc1`: the TGI was > 100 µM.

Take `CC1(C)OC2COC3([C@@H]4OC(C)(C)O[C@@H]4CO)OC(C)(C)OC3C2O1` (some centres undefined): the TGI is > 100 µM.

With `COP(=O)(OC)C(Nc1ccc(Cc2ccc(NC(c3ccco3)P(=O)(OC)OC)cc2)cc1)c1ccco1` (centres undefined), the TGI is > 100 µM.

In turn, `COC(=O)[C@H](Cc1ccccc1)NC(=O)N(CCC#N)CCN(C(=O)N[C@@H](Cc1ccccc1)C(=O)OC)c1ccccc1` gave a TGI of 50.8 µM.

For `CN(C)CCCNC(=O)c1c(O)c2ccccc2n(C)c1=O`, the TGI was > 100 µM.

For `O=[N+]([O-])/C(Cl)=C(\NCCN/C(C(Cl)=C(Cl)Cl)=C(/Cl)[N+](=O)[O-])C(Cl)=C(Cl)Cl`, the TGI was > 100 µM.

The molecule `Cc1cc(O)c(-c2cc(O)c(C)cc2O)cc1O` came in with a TGI of 8.55 µM.

Regarding `Cc1ccc(NC(=O)/C(Cc2nc3ccc([N+](=O)[O-])cc3[nH]c2=O)=N\NC(=O)C[n+]2ccccc2)c(C)c1`, the TGI was 79.9 µM.

On to `CC1(C)N=C2C(=O)c3c([nH]c4ccccc34)[C@]3(C)CCC1CC23` (some centres undefined), for which the TGI is > 6.25 µM.

On to `CCN1C(=O)C(=C/C=C/c2ccc(N(CC)CC)cc2)C(=O)N(CC)C1=S`, for which the TGI was > 100 µM.

Regarding `COc1ccc(NC(C)c2ccncc2)cc1` (centres undefined), the TGI was > 100 µM.

`O=C1C=CC(=O)C(CNc2ccc(C(=O)OCc3ccccc3)cc2)=C1`: the TGI worked out at 13.6 µM.

With `CC1=NNC(=O)C1C1CC(c2c[nH]c3ccccc23)=NN=C1Cl` (centres undefined), the TGI was > 100 µM.

As to `COc1ccc2c(c1)c(=O)c1c(NCCNCCO)ccc3c(=O)n(CCN(C)C)c(=O)n2c31`, the TGI came out at 0.892 µM.

As to `CCOC(=O)C1=CC(C)(C(=O)OCC)Nc2c(nc(N)[nH]c2=O)N1` (centres undefined), the TGI was > 10 µM.

As to `c1ccc(C2CC(=NC3CCCCC3)Nc3ccccc3N2)cc1` (centres undefined), the TGI was > 100 µM.

A further assay concerns SF-268 CNS. In words: growth of human tumour cells (NCI), 48 h.
Consider `COc1cc2[nH]c(-c3ccccc3)cc(=O)c2c(OC)c1OC`, for which the TGI was > 100 µM.

For `CCOP(=O)(OCC)OC1CC(n2cc(C)c(=O)n(C)c2=O)OC1CO[Si](C)(C)C(C)(C)C` (centres undefined), the TGI was > 100 µM.

On to `CCOC(=O)c1c(SCCN2CCOCC2)n(-c2ccccc2)c(=S)n(-c2ccccc2)c1=O`, for which the TGI was > 100 µM.

Consider `COc1cc(C(O)c2ccc3c(c2)OCO3)cc(OC)c1OC` (centres undefined), for which the TGI was > 100 µM.

On to `Cc1cc(C)nc(NS(=O)(=O)c2ccc(NC(=O)c3cccc4c(NNc5ccc(S(=O)(=O)N=C(N)N)cc5)c5ccccc5nc34)cc2)n1`, for which the TGI was > 50 µM.

`CCOC(=O)c1sc2ncnc(N)c2c1C`: the TGI was > 100 µM.

Consider `COc1cccc2c1OCC1Cc3ccccc3OC21` (centres undefined), for which the TGI was > 100 µM.

`O=C1CS(=O)(=O)C(c2cccc(Oc3ccccc3)c2)N1c1cc(Cl)ccc1Cl` (centres undefined): the TGI is 52.8 µM.

`COc1ccc(OC)c2sc(N3C(=O)/C(=C/c4cccc([N+](=O)[O-])c4)N=C3c3ccccc3)nc12`: the TGI is > 100 µM.

On to `Cc1cccc(/C(Br)=C2/OC(=O)c3ccccc32)c1`, for which the TGI is > 100 µM.

For `O=[N+]([O-])c1cc(Cl)ccc1Sc1ccccc1`, the TGI was > 100 µM.

With `COP(=O)(OC)C(Nc1ccc(Cc2ccc(NC(c3ccco3)P(=O)(OC)OC)cc2)cc1)c1ccco1` (centres undefined), the TGI is > 100 µM.

Molecule `COc1ccc(C2c3cc4c(cc3OC(NCCO)C2C)OCO4)cc1` (centres undefined) came in with a TGI of 72.6 µM.

`COC(=O)[C@H](Cc1ccccc1)NC(=O)N(CCC#N)CCN(C(=O)N[C@@H](Cc1ccccc1)C(=O)OC)c1ccccc1` had a TGI of 45.6 µM.

Turning to `CN(C)CCCNC(=O)c1c(O)c2ccccc2n(C)c1=O`, the TGI is > 100 µM.

In the case of `O=[N+]([O-])/C(Cl)=C(\NCCN/C(C(Cl)=C(Cl)Cl)=C(/Cl)[N+](=O)[O-])C(Cl)=C(Cl)Cl`, the TGI was > 100 µM.

As for `Cc1cc(O)c(-c2cc(O)c(C)cc2O)cc1O`, the TGI is 37.8 µM.

As for `Cc1ccc(NC(=O)/C(Cc2nc3ccc([N+](=O)[O-])cc3[nH]c2=O)=N\NC(=O)C[n+]2ccccc2)c(C)c1`, the TGI is > 100 µM.

Take `CC1(C)N=C2C(=O)c3c([nH]c4ccccc34)[C@]3(C)CCC1CC23` (some centres undefined): the TGI was > 6.25 µM.

With `CCN1C(=O)C(=C/C=C/c2ccc(N(CC)CC)cc2)C(=O)N(CC)C1=S`, the TGI is > 100 µM.

Turning to `COc1ccc(NC(C)c2ccncc2)cc1` (centres undefined), the TGI is > 100 µM.

In turn, `O=C1C=CC(=O)C(CNc2ccc(C(=O)OCc3ccccc3)cc2)=C1` had a TGI of 21.8 µM.

On to `CC1=NNC(=O)C1C1CC(c2c[nH]c3ccccc23)=NN=C1Cl` (centres undefined), for which the TGI was > 100 µM.

Take `COc1ccc2c(c1)c(=O)c1c(NCCNCCO)ccc3c(=O)n(CCN(C)C)c(=O)n2c31`: the TGI was determined as 0.619 µM.

In the case of `CCOC(=O)C1=CC(C)(C(=O)OCC)Nc2c(nc(N)[nH]c2=O)N1` (centres undefined), the TGI was > 10 µM.

For `c1ccc(C2CC(=NC3CCCCC3)Nc3ccccc3N2)cc1` (centres undefined), the TGI is > 100 µM.

A further assay deals with SNB-19 CNS. In words: growth of human tumour cells (NCI), 48 h.
`COc1cc2[nH]c(-c3ccccc3)cc(=O)c2c(OC)c1OC`: the TGI is > 100 µM.

Turning to `CCOP(=O)(OCC)OC1CC(n2cc(C)c(=O)n(C)c2=O)OC1CO[Si](C)(C)C(C)(C)C` (centres undefined), the TGI is > 100 µM.

Take `CCOC(=O)c1c(SCCN2CCOCC2)n(-c2ccccc2)c(=S)n(-c2ccccc2)c1=O`: the TGI was > 100 µM.

Consider `COc1cc(C(O)c2ccc3c(c2)OCO3)cc(OC)c1OC` (centres undefined), for which the TGI was > 100 µM.

For `Cc1cc(C)nc(NS(=O)(=O)c2ccc(NC(=O)c3cccc4c(NNc5ccc(S(=O)(=O)N=C(N)N)cc5)c5ccccc5nc34)cc2)n1`, the TGI is > 50 µM.

As to `CCOC(=O)c1sc2ncnc(N)c2c1C`, the TGI is > 100 µM.

With `C=CCN1C(=O)/C(=C/c2ccc(C)cc2)N=C1SC1OC(COC(C)=O)C(OC(C)=O)C(OC(C)=O)C1OC(C)=O` (centres undefined), the TGI is > 100 µM.

`O=C1CS(=O)(=O)C(c2cccc(Oc3ccccc3)c2)N1c1cc(Cl)ccc1Cl` (centres undefined) gave a TGI of 57 µM.

On to `COc1ccc(OC)c2sc(N3C(=O)/C(=C/c4cccc([N+](=O)[O-])c4)N=C3c3ccccc3)nc12`, for which the TGI is > 100 µM.

With `O=[N+]([O-])c1cc(Cl)ccc1Sc1ccccc1`, the TGI was > 100 µM.

Turning to `CC1(C)OC2COC3([C@@H]4OC(C)(C)O[C@@H]4CO)OC(C)(C)OC3C2O1` (some centres undefined), the TGI was > 100 µM.

In the case of `COP(=O)(OC)C(Nc1ccc(Cc2ccc(NC(c3ccco3)P(=O)(OC)OC)cc2)cc1)c1ccco1` (centres undefined), the TGI turned out to be 71.3 µM.

As to `COc1ccc(C2c3cc4c(cc3OC(NCCO)C2C)OCO4)cc1` (centres undefined), the TGI is > 100 µM.

For `COC(=O)[C@H](Cc1ccccc1)NC(=O)N(CCC#N)CCN(C(=O)N[C@@H](Cc1ccccc1)C(=O)OC)c1ccccc1`, the TGI was > 100 µM.

Regarding `O=[N+]([O-])/C(Cl)=C(\NCCN/C(C(Cl)=C(Cl)Cl)=C(/Cl)[N+](=O)[O-])C(Cl)=C(Cl)Cl`, the TGI is > 100 µM.

Turning to `Cc1cc(O)c(-c2cc(O)c(C)cc2O)cc1O`, the TGI turned out to be 40.2 µM.

`Cc1ccc(NC(=O)/C(Cc2nc3ccc([N+](=O)[O-])cc3[nH]c2=O)=N\NC(=O)C[n+]2ccccc2)c(C)c1`: the TGI is > 100 µM.

With `CCN1C(=O)C(=C/C=C/c2ccc(N(CC)CC)cc2)C(=O)N(CC)C1=S`, the TGI is > 100 µM.

As for `COc1ccc(NC(C)c2ccncc2)cc1` (centres undefined), the TGI is > 100 µM.

In the case of `O=C1C=CC(=O)C(CNc2ccc(C(=O)OCc3ccccc3)cc2)=C1`, the TGI was determined as 26.5 µM.

For `CC1=NNC(=O)C1C1CC(c2c[nH]c3ccccc23)=NN=C1Cl` (centres undefined), the TGI is > 100 µM.

Molecule `COc1ccc2c(c1)c(=O)c1c(NCCNCCO)ccc3c(=O)n(CCN(C)C)c(=O)n2c31` showed a TGI of 0.997 µM.
